US7825134B2, “Amelioration of cataracts, macular degeneration and other ophthalmic diseases” (Othera Holding, Inc., priority 2003, dated 2010)
“Also recorded” adds a separate entry of the source. Structures can show the parent of a compound that is named as a salt. Values belong to the compound of their own block, whether it stands above or below them.

Columns and labels:
[1] = Measured octanol/water partition coefficient; type: physicochemical
Text: Esters are selected for these tests based on their calculated or measured octanol/water partition coefficient (P). Hydrophilic compounds such as tempol-H cannot penetrate the lipophilic epithelial layer of the cornea. Partition coefficients of tempol-H and esters that penetrate are as follows: […]

[2] = Drug penetration of organ cultured rat lenses (ESR); type: in vitro ADME, Sprague-Dawley rats; details: for Concentration of tempol-H in lens water: Sprague-Dawley, rat, 4 mM
Protocol: Method: Rat lenses were cultured as follows: Rat lenses were obtained from Sprague-Dawley rats. The lenses were incubated in 24-well cluster dishes in modified TC-199 medium and were placed in a 37° C. incubator with a 95% air/5% CO2 atmosphere. The lenses were incubated in 2 ml of culture medium, which was adjusted to 300 milliosmoles (mOsm). […] In one experiment, lenses were incubated for 4 hours and dissected into epithelial, cortical and nuclear sections before analysis.

[3] = Absorption across the cornea: aqueous humor tempol-H after topical eye drops (ESR); type: in vivo, New Zealand White rabbits; details: all time points (30, 60, 120 minutes) after topical 3.5% solution
Protocol: Groups of six New Zealand White rabbits were used in the study to evaluate the absorption of tempol-H and compound 1. The test compounds were prepared in sterile saline solutions at a concentration of 3.5% weight by volume. The animals were held in restraining boxes during instillation of eye drops, 50 μL in each eye, using a micropipette. After dosing, the eye was gently held closed for 60 seconds. The rabbits were dosed twice daily for 4 consecutive days. On the fifth day, rabbits were dosed once and then euthanized at 30 minutes post dose (2 rabbits), 60 minutes post-dose (2 rabbits) and at 120 minutes post-dose (2 rabbits). Immediately after euthanization, aqueous humor was collected from each rabbit. The aqueous concentration of tempol-H in each sample was measured using the electron spin resonance (ESR) method.

[4] = system: ARPE-19 cells that have accumulated A2E; assay: Protection against A2E-mediated blue light damage in RPE cells; type: cell-based; details: 24 hours pre-treatment; 430+/−20 nm light; MTT and two-color fluorescence assays; FIG. 3 and FIG. 4
Protocol: Materials and Methods: ARPE-19 cells that have accumulated A2E in culture were exposed to 430+/−20 nm light delivered from a halogen source. This wavelength of light is relevant since (i) the excitation maximum of A2E is approximately 430 nm, and (ii) light of this wavelength reaches the RPE in vivo while light of wavelengths […] by the cornea and lens. Cell death in blue light-illuminated A2E-laden RPE was compared with and without pre-treatment (24 hours) with tempol-H. The loss of cell viability was quantified by: • 1. A calorimetric microtiter assay based on ability of healthy metabolically active cells to cleave the yellow tetrazolium salt MTT to purple formazan crystals. Cell viability was assessed 24 hours after blue light illumination. Triplicate wells were assayed in each of 2 experiments. • 2. Two-color fluorescence assay in which the nuclei of all dead cells appear red due to staining by a membrane-impermeant dye (Dead Red nuclei acid stain, Molecular Probes) with the nuclei of all cells stained blue with DAPI. Cell viability was assessed 8 hours after blue light illumination. Replicates were assayed by counting cells within 5 microscopic fields within the area of illumination in each well and 3 wells were assayed per experiment. Data are based on of 3 experiments.

[5] = Identification of metabolites of Compound 1 in rabbit aqueous humor (GC/MS); type: in vivo; details: GC/MS of rabbit aqueous humor after topical dosing
Protocol: Aqueous humor samples, from the in vivo rabbit study described in Example 16 were identified by GC/MS for the presence of compound 1 and its metabolites, tempol-H and carboxylic acid (R1COOH), formed by hydrolysis of compound 1 by ocular esterases. Both the metabolites were observed but not Compound 1.
A sample of aqueous humor was freeze dried in a 10 mL amber colored glass vial containing a tiny magnetic bar. To this was added 1 mL of methylene chloride and the solution was stirred for two minutes and allowed to stand for five minutes. A 3 μL aliquot of the methylene chloride layer was injected into the GC column. The cyclopropanecarboxylic acid was detected by a mass spectrometer detector at 13.02 (retention time) with m/z=85 (GC model […] series II (both made by HP)). Agilent DB-5 column 25 m length, 0.2 mm diameter was used. Carrier gas He at 22 cm/sec. Inlet temperature was 250° C., detector 280° C. For every injection, the temperature was held at 35° C. for 5 minutes, then was increased to 240° C. at 10° C./min, and was held at 240° C. for 3 minutes. Splitless injection was used.

rabbit eyes = assay: Tolerance in vivo in rabbit eyes; design: species or system rabbits
Protocol: Eyedrops containing 3.5% compound 1 were administered six times, at 1-hour intervals, to each eye of two conscious rabbits.
It was previously established that dosing rabbits with a 3% solution of Compound 1, 4 times daily, for one week caused no toxicity.

[6] = Aqueous solubility at room temperature; type: physicochemical; details: thermodynamic from solid
Text: It may be preferred that at least 0.1% solubility is needed for an eye drop, even for a suspension formulation. Completely water-insoluble compounds may not be effective. Esters that are soluble in water (>0.1% weight by volume) are preferred. Esters with less than 0.1% solubility may be used in the form of suspensions or ointments or other formulations. […]

[7] = Pharmacokinetics and ocular tissue distribution of total radioactivity after single topical dose; type: in vivo, New Zealand White (Harlan) rabbits
Protocol: Pharmacokinetics, Ocular Tissue Distribution, and Urinary Excretion of Total Radioactivity Following Single Topical Dose Administration of Compound 1 in Rabbits. The pharmacokinetics, ocular tissue distribution and urinary excretion of total radioactivity following a single topical dose administration of the tritiated hydrochloride of Compound 1 in rabbits was evaluated. Eighteen male New Zealand White (Harlan) rabbits, age 3-6 months, weight 2.1 to 3.0 kg were utilized.
Experimental Design: The experimental design was a randomized, single-treatment study in one group of rabbits administered a single topical application of [^3H]Compound 1-HCl into both eyes. The group consisted of 6 subgroups of 3 animals. At six specified times (0.5, 1, 2, 4, 8 and 24 hours) post-dose, three animals per subgroup were euthanized and terminal samples collected. Animals designated to the 24 hour post-dose subgroup were placed in metabolism cages and urine was collected from 0-12 and 12-24 hours post-dose. Terminal blood was collected by cardiac puncture technique. From each eye, the following ocular tissues were harvested: aqueous humor; vitreous humor; lens; and cornea. Total radioactivity was determined in all samples.
Animals received a single topical ocular dose in each eye, right (OD) followed by left (OS). While slightly pulling away the lower eyelid from the globe, the dose was accurately pipetted onto the cornea and allowed to collect in the lower conjunctival sac. The eyelids were gently held shut for 1 minute after drug instillation and then carefully released.
Data analysis and statistical evaluation: Counts per minute for all assayed samples were converted to disintegrations per minute (DPM) using a Beckman LS6000 counter. Following appropriate background subtraction, DPM values were converted to concentrations (DPM per ml or g). Average DPM per ml or g values were calculated. Mean concentration values of ^3H radioactivity were calculated and converted to equivalents per ml or g based on the measured specific activity and nominal concentration of the administered test article formulation as determined by oxidation. Concentrations of total radioactivity in blood and plasma, amount (% of dose) and concentration in ocular tissue and urine samples were determined. Elimination kinetics including blood, plasma, and tissue half-lives were calculated. Urinary excretion data were also tabulated. Statistical evaluation consisted of descriptive statistical analysis. Pharmacokinetics of radioactivity were evaluated by model independent analyses pending suitability of sample assay results. Non-truncated numerical values were used in the calculations.

[8] = 30 minutes post-dose, single drop (40 ul) of 3% solution, total radioactivity

SMILES: CC1(C)CC(O)CC(C)(C)N1O [Tempol-H, 1,4-dihydroxy-2,2,6,6-tetramethylpiperidine]
P (measured) [1]: 0.5
Concentration of tempol-H in lens water ([2]; 1 h): 400 µM
Concentration of tempol-H in lens water ([2]; 2 h): 800 µM
Concentration of tempol-H in lens water ([2]; 4 h): 1000 µM
Aqueous humor levels of tempol-H [3]: below detectable limits
Protection against the death of blue light-illuminated A2E-laden RPE [4]: dose-dependent protection; also recorded: protect

melting point: 209.4 to 210.4 °C
SMILES: CC1(C)CC(OC(=O)c2ccco2)CC(C)(C)N1O.Cl

SMILES: CC1(C)CC(OC(=O)C2CC2)CC(C)(C)N1O.Cl [Compound 1, 1-hydroxy-4-cyclopropanecarbonyloxy-2,2,6,6-tetramethylpiperidine Hydrochloride]
Conversion to metabolites (tempol-H and carboxylic acid) in aqueous humor [5]: completely converted to its metabolites
Toxicity (rabbit eyes; 3% solution, 4 times daily, for one week): no toxicity
Ocular tolerance (rabbit eyes; eyedrops 3.5%, six times at 1-hour intervals, each eye of two conscious rabbits): well tolerated and no adverse findings were noted
solubility ([6]; 0.01 M acetate buffer, pH 4.8, aqueous buffer, 0.01 M Acetate buffer at pH 4.8, room temperature): 68.6 mg/mL
solubility ([6]; 0.01 M citrate buffer, pH 4.8, aqueous buffer, 0.01 M Citrate buffer at pH 4.8, room temperature): 71.1 mg/mL
solubility ([6]; 0.9% sodium chloride, saline or isotonic, room temperature): 40.5 mg/mL
solubility ([6]; water with 1% w/v glycerin, water, Water + 1% w/v glycerin, room temperature): 62.2 mg/mL
solubility ([6]; water with 1% w/v propylene glycol, water, Water + 1% w/v propylene glycol, room temperature): 63.8 mg/mL
solubility ([6]; water, room temperature): 74.9 mg/mL
Peak concentration, Blood [7, 8]: 240 nanogram equivalents/gram
Peak concentration, Plasma [7, 8]: 360 nanogram equivalents/gram
Peak tissue concentration, Aqueous [7, 8]: 5930 nanogram equivalents/gram
Peak tissue concentration, Cornea [7, 8]: 13090 nanogram equivalents/gram
Peak tissue concentration, Lens [7, 8]: 310 nanogram equivalents/gram
Peak tissue concentration, Vitreous [7, 8]: 150 nanogram equivalents/gram
Radioactivity in tissues at 24 hours post-dose ([7]; all tissues, FIG. 2): still measurable in all tissues

solubility ([6]; water, room temperature): > 35 mg/mL
SMILES: CC(C)(CO)C(=O)OC1CC(C)(C)N(O)C(C)(C)C1 [Example 10, 1-hydroxy-4-(3′-hydroxy-2′,2′-dimethyl)propanecarbonyloxy-2,2,6,6-tetramethylpiperidine Hydrochloride]

solubility ([6]; water, room temperature): ≥ 1 mg/mL
melting point: 215 to 220 °C (dec.)
SMILES: CC1(C(=O)OC2CC(C)(C)N(O)C(C)(C)C2)CC1.Cl [Example 12, 1-hydroxy-4-(1-methyl-cyclopropane)carbonyloxy-2,2,6,6-tetramethylpiperidine Hydrochloride]

SMILES: CC1(C)CC(O)CC(C)(C)N1[O] [tempol]
Share in the oxidized form in the epithelium ([2]; 4-hour incubation with tempol): about 5%
Oxidized form tempol found in the lens ([2]; after incubation with 4.0 mM tempol): ≤ 5%

melting point: 140 to 142 °C (dec.)
SMILES: CCOCC(C)(C)C(=O)OC1CC(C)(C)N(O)C(C)(C)C1.Cl

solubility ([6]; water, room temperature): > 35 mg/mL
SMILES: CC1(C)CC(OC(=O)C2CCOC2)CC(C)(C)N1O.Cl (stereo not drawn) [Example 16, 1-hydroxy-4-(3′-tetrahydrofuran)carbonyloxy-2,2,6,6-tetramethylpiperidine Hydrochloride]
